Results from publication PMC4977052, “On the Utility of ToxCast™ and ToxPi as Methods for Identifying New Obesogens” (Environmental Health Perspectives, 2016).
Where two headings read alike, the source gives them in different places.

What was measured:
GAL4-mPPARγ = molecular target: T1, GAL4-mPPARγ (Mus musculus, UniProt P37238); experiment: GAL4-mPPARγ activation, transient transfection luciferase reporter in COS7 cells; format: cell-based; settings: for Activation COS7 (result in words), ToxCast PPARγ list: PPARγ activation or antagonism assays (Table 1, Table S6); for Activation of GAL4-PPARγ (text): COS7, 100 μM through 0.137 μM
T1 construct: expressed in transfected cells; host or cells: COS7

3T3-L1 preadipocytes [1] = experiment: 3T3-L1 adipogenesis assay (lipid accumulation, adipogenic gene expression); format: cell-based; settings: 0.02-20 μM, 5 days after MDI induction
Method in brief: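 After 2-day MDI induction with biotin and pantothenate, 3T3-L1 cells were treated 5 days with chemicals at 0.02–20 μM (0.1% DMSO; 10 μM if toxic). Lipid read as Nile red/Hoechst fluorescence ratio; adipogenic genes by QPCR, 2^ΔΔCt versus 36b4, normalized to DMSO.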

PPARγ [2] = settings: cited from earlier work
C/EBP = tested on: C/EBP; design: method as in Knudsen et al. 2011; settings: ToxCast Phase I 2011 release; NA = not active; ref Knudsen et al. 2011; read-out: ATGC CEBP AC50; cited from earlier work
PPRE = tested on: PPRE; design: method as in Knudsen et al. 2011; settings: ToxCast Phase I 2011 release; NA = not active; ref Knudsen et al. 2011; read-out: ATGC PPRE AC50; cited from earlier work
SREBP = tested on: SREBP; design: method as in Knudsen et al. 2011; settings: ToxCast Phase I 2011 release; NA = not active; ref Knudsen et al. 2011; read-out: ATGC SREBP AC50; cited from earlier work
LXRβ [3] = tested on: LXRβ; design: method as in Knudsen et al. 2011; settings: ToxCast Phase I 2011 release; NA = not active; ref Knudsen et al. 2011; read-out: NCGC LXR AC50; cited from earlier work
PPARγ [4] = tested on: PPARγ; design: method as in Filer et al. 2014; settings: PPARγ; NA = not active; ref Filer et al. 2014; read-out: NCGC Antag. AC50, 2014 Release; cited from earlier work
LXRα = tested on: LXRα; design: method as in Knudsen et al. 2011; settings: ToxCast Phase I 2011 release; NA = not active; ref Knudsen et al. 2011; read-out: ATGT LXRα AC50; cited from earlier work
LXRβ [5] = tested on: LXRβ; design: method as in Knudsen et al. 2011; settings: ToxCast Phase I 2011 release; NA = not active; ref Knudsen et al. 2011; read-out: ATGT LXRβ AC50; cited from earlier work
3T3-L1 preadipocytes [6] = tested on: 3T3-L1 preadipocytes; design: method as in earlier work; settings: not tested here; ref Kanayama et al. 2005; Li et al. 2012; Chamorro-García et al. 2012; Masuno et al. 2002; cited from earlier work
DR4/LXRE = tested on: DR4/LXRE; design: method as in Knudsen et al. 2011; settings: ToxCast Phase I 2011 release; NA = not active; ref Knudsen et al. 2011; read-out: ATGC LXRE AC50; cited from earlier work
RXRα = settings: ToxCast Phase I 2011 release; NA = not active; ref Knudsen et al. 2011; read-out: NCGC RXRα AC50; cited from earlier work
COS7 cells = experiment: Cytotoxicity in transfected COS7 cells measured as decreased β-galactosidase activity; settings: African green monkey, 24 h
Protocol: pCMX-Gal4, pCMX-Gal4-mPPARγ, and pCMX-Gal4-hRXRα were previously described ([Grün et al. 2006]). Transient transfections were performed in COS7 cells as described ([Chamorro-García et al. 2012]). Briefly, COS7 cells were seeded at 15,000 cells per well in 96-well tissue culture plates in 10% calf bovine serum. The following day, cells were transfected in Opti-MEM at ~ 90% confluency. One microgram of CMX-GAL4 effector plasmid was co-transfected with 5 μg tk-(MH100)4-luciferase reporter and 5 μg of CMX-β-galactosidase transfection control plasmids in Opti-MEM® using Lipofectamine® 2000 reagent (Invitrogen™ Life Technologies, Carlsbad, CA, USA), following the manufacturer’s recommended protocol. All chemicals were solvated in dimethyl sulfoxide (DMSO). After overnight incubation, the medium was replaced with Dulbecco’s Modified Eagle Medium (DMEM; HyClone, Logan, UT, USA), 10% resin charcoal stripped fetal bovine serum (FBS) plus ligands at concentrations indicated in the figure legends for an additional 24 hr. DMSO concentration was maintained at 0.05% across all chemical treatments. Cells were lysed and assayed for luciferase and β-galactosidase activity as previously described ([Forman et al. 1995]). All transfections were performed in triplicate and reproduced in multiple experiments. Data are reported as fold induction or reduction over vehicle ([…]) controls ± SEM (standard error of the mean) using standard propagation of error ([Bevington and Robinson 2003]). […] The EC50, EC10, IC50, and IC10 values from NCGC and ToxCast™ are reported from gain AC50 and AC10 values in the ToxCast™ 2014 release ([Filer et al. 2014]).
Figure 1 ToxCast™ Chemical Activity on PPARγ. The ability of a graded dose series of ToxCast™ chemicals to (A) activate or (B) antagonize GAL4-mPPARγ was tested in transiently transfected COS7 cells. (A, B) Data points are averages of triplicate transfections (three biological replicates). […] Data are depicted as (A) fold induction or (B) reduction over vehicle (0.05% DMSO) controls ± SEM. (A) ToxCast™ chemicals were tested in 3-fold serial dilutions from 100 μM through 0.137 μM, with the final data point being 0.05% DMSO. Rosiglitazone serves as a positive control activator. (B) ToxCast™ chemicals were tested in 3-fold serial dilutions from 100 μM, in competition with 50 nM rosiglitazone (Rosi). […] (C) EC50, EC10, IC50, and IC10 values calculated from A and B are reported and compared to commercial assays (see Figure S1). Note: ATG, Attagene GAL-PPARγ activation assay; NCGC, GeneBLAzer® agonist (EC values) or antagonist (IC values) assays. Triphenyltin was previously published ([Kanayama et al. 2005]).

Human PPARγ = settings: cited from earlier work
PPARγ [7] = settings: ref Filer et al. 2014, cited from earlier work
[8] = Cos-7 transient transfection, PPARγ or RXRα activation assays (Table 2)
[9] = ToxCast Phase I 2011 release, NA = not active, ref Knudsen et al. 2011, read-out: ATGT PPARγ AC50
[10] = PPARγ, NA = not active, ref Filer et al. 2014, read-out: ATG Agonist AC50, 2014 Release
[11] = PPARγ, NA = not active, ref Knudsen et al. 2011, read-out: ATG Agonist AC50, 2011 Release
[12] = PPARγ direct binding, NA = not active, ref Filer et al. 2014, read-out: NVS Agonist AC50, 2014 Release
[13] = PPARγ direct binding, NA = not active, ref Knudsen et al. 2011, read-out: NVS Agonist AC50, 2011 Release
[14] = PPARγ, NA = not active, read-out: NCGC Agonist AC50, 2014 Release

T1 sequence (P37238 with tags, fused parts or gaps limits assumed): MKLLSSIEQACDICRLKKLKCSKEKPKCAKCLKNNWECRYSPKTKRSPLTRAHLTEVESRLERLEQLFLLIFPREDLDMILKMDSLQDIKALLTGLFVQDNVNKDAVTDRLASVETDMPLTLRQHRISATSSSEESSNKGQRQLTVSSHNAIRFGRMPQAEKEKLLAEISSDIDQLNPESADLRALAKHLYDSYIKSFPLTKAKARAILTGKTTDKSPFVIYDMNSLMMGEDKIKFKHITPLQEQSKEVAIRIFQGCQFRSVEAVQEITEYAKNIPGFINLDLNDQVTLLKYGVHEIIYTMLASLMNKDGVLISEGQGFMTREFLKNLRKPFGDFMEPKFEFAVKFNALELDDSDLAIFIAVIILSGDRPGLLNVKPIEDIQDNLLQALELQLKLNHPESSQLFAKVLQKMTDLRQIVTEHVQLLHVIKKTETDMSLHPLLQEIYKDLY

C=CCC1=C(C)C(OC(=O)C2C(C=C(C)C)C2(C)C)CC1=O (mixture of isomers) [d-cis,trans-Allethrin]
Activation COS7 (result in words), ToxPi chemicals (GAL4-mPPARγ; [8]): Inactive | Adipogenesis 3T3-L1 (result in words) (3T3-L1 preadipocytes [1]): Negative | AC50 (PPARγ [2]; [9]): 36 µM | AC50 (C/EBP): 25 µM | AC50 (PPRE): 36 µM | AC50 (SREBP): 48 µM | AC50 (LXRβ [3]): 11.9 µM

Cc1nn(C)c(Oc2ccccc2)c1C=NOCc1ccc(C(=O)OC(C)(C)C)cc1 [(Z,E)-Fenpyroximate]
Activation COS7 (result in words), ToxCast PPARγ list (GAL4-mPPARγ; Cos-7 transient transfection): Inactive | Activation COS7 (result in words), ToxPi chemicals (GAL4-mPPARγ; [8]): Inactive | Adipogenesis 3T3-L1 (result in words) (3T3-L1 preadipocytes [1]): Negative | AC50 (PPARγ [2]; [10]): 2.4 µM | AC50 (PPARγ [2]; [11]): 8.6 µM | AC50 (PPARγ [4]): 35.9 µM | AC50 (LXRα): 4.3 µM | AC50 (LXRβ [5]): 8.8 µM | AC50 (PPRE): 0.065 µM | AC50 (LXRβ [3]): 6.9 µM

CC(C)(c1ccc(O)cc1)c1ccc(O)cc1 [Bisphenol A]
Activation COS7 (result in words), ToxPi chemicals (GAL4-mPPARγ; [8]): Inactive | Adipogenesis 3T3-L1 (result in words), previously published (3T3-L1 preadipocytes [6]): Positive | AC50 (PPARγ [2]; [9]): 27 µM | AC50 (PPRE): 37 µM

COP(=S)(OC)Oc1ccc(SC)c(C)c1 [Fenthion]
Activation COS7 (result in words), ToxPi chemicals (GAL4-mPPARγ; [8]): Inactive | Adipogenesis 3T3-L1 (result in words) (3T3-L1 preadipocytes [1]): Negative | AC50 (PPARγ [2]; [9]): 36 µM | AC50 (DR4/LXRE): 34 µM | AC50 (LXRα): 33 µM | AC50 (LXRβ [5]): 37 µM | AC50 (PPRE): 18 µM

C[Si](Cn1cncn1)(c1ccc(F)cc1)c1ccc(F)cc1 [Flusilazole]
Activation COS7 (result in words), ToxPi chemicals (GAL4-mPPARγ; [8]): Inactive | Adipogenesis 3T3-L1 (result in words) (3T3-L1 preadipocytes [1]): Positive | AC50 (PPARγ [2]; [9]): 51 µM | AC50 (PPRE): 46 µM | AC50 (SREBP): 20 µM

C=CCOC(Cn1ccnc1)c1ccc(Cl)cc1Cl (stereo not drawn) [Imazalil]
Activation COS7 (result in words), ToxPi chemicals (GAL4-mPPARγ; [8]): Inactive | Adipogenesis 3T3-L1 (result in words) (3T3-L1 preadipocytes [1]): Negative | AC50 (PPARγ [2]; [9]): 73 µM | AC50 (RXRα): 3.2 µM

C#CCC1=C(C)C(OC(=O)C2C(C=C(C)C)C2(C)C)CC1=O (stereo not drawn) [Prallethrin]
Activation COS7 (result in words), ToxPi chemicals (GAL4-mPPARγ): Inactive | Adipogenesis 3T3-L1 (result in words) (3T3-L1 preadipocytes [1]): Negative | AC50 (PPARγ [2]; [9]): 44 µM | AC50 (C/EBP): 29 µM | AC50 (PPRE): 8.4 µM | AC50 (SREBP): 33 µM | AC50 (LXRβ [3]): 16.7 µM

CCOP(=S)(Oc1cnc(C(C)(C)C)nc1)OC(C)C (stereo not drawn) [Tebupirimfos]
Activation COS7 (result in words), ToxPi chemicals (GAL4-mPPARγ; [8]): Inactive | Adipogenesis 3T3-L1 (result in words) (3T3-L1 preadipocytes [1]): Positive | AC50 (PPARγ [2]; [9]): 43 µM | AC50 (DR4/LXRE): 9.4 µM | AC50 (LXRα): 30 µM | AC50 (LXRβ [5]): 22 µM | AC50 (SREBP): 31 µM | AC50 (LXRβ [3]): 7.1 µM

CCCOC/C(=N\c1ccc(Cl)cc1C(F)(F)F)n1ccnc1 [Triflumizole]
Activation of GAL4-PPARγ (text) (GAL4-mPPARγ): activated GAL-PPARγ | AC50 (GAL4-mPPARγ; Cos-7 transient transfection): 11.5 µM | Activation COS7 (result in words), ToxCast PPARγ list (GAL4-mPPARγ; Cos-7 transient transfection): PPARγ activator | Concentration at which cytotoxicity (decreased β-galactosidase activity) was observed (COS7 cells): 100 µM | Adipogenesis 3T3-L1 (result in words), previously published (3T3-L1 preadipocytes [6]): Positive | AC50 (PPARγ [2]; [10]): 2.2 µM | AC50 (PPARγ [2]; [11]): 2.8 µM | AC50 (PPARγ [2]; ToxCast 2014 release, ref Filer et al. 2014, read-out: Attagene AC50 (panel A, w/o Z-Score Correction ranking)): 20.4 µM | AC50 (Human PPARγ; [12]): 20.8 µM | AC50 (Human PPARγ; [13]): 35 µM | AC50 (Human PPARγ; direct binding, ToxCast 2014 release, ref Filer et al. 2014, read-out: NovaScreen AC50 (panel A)): 14.1 µM | AC50 (PPARγ [7]; [14]): 67.5 µM | AC50 (PPARγ [7]; ToxCast 2014 release, read-out: Tox21/NCGC AC50 (panel A)): 79.9 µM | AC50 (PPARγ [4]): 0.3 µM

[OH-].c1cc[c]([Sn+]([c]2ccccc2)[c]2ccccc2)cc1 [Triphenyltin]
Activation of GAL4-PPARγ (text) (GAL4-mPPARγ): activated GAL-PPARγ | Activation COS7 (result in words), ToxCast PPARγ list (GAL4-mPPARγ; Cos-7 transient transfection): PPARγ activator | Activation COS7 (result in words), ToxPi chemicals (GAL4-mPPARγ; [8]): PPARγ activator | AC50 (GAL4-mPPARγ; read-out: Activation AC50 (PPARγ activators), Cos-7 transient transfection): 0.02 µM | Adipogenesis 3T3-L1 (result in words), previously published (3T3-L1 preadipocytes [6]): Positive | AC50 (PPARγ [2]; [10]): 0.02 µM | AC50 (PPARγ [2]; [11]): 0.022 µM | AC50 (Human PPARγ; [12]): 0.28 µM | AC50 (Human PPARγ; [13]): 0.54 µM | AC50 (PPARγ [7]; [14]): 21.6 µM | AC50 (PPARγ [4]): 0.02 µM | AC50 (PPRE): 0.009 µM
